Measurements published in ChEMBL document CHEMBL2074392, “Three-dimensional quantitative structure-activity relationships of inhibitors of P-glycoprotein” (Mol Pharmacol, 2002).

Legend:
Assay type in all cases: functional, cell-based
[1] = target: T1, ATP-dependent translocase ABCB1 (Homo sapiens, UniProt P08183); experiment: TP_TRANSPORTER: increase in Vinblastine intracellular accumulation in MDR1-expressing LLC-PK1 cells
[2] = target: T1, ATP-dependent translocase ABCB1; experiment: TP_TRANSPORTER: increase in Calcein-AM intracellular accumulation in MDR1-expressing LLC-PK1 cells
[3] = target: T1, ATP-dependent translocase ABCB1; experiment: TP_TRANSPORTER: inhibition of Digoxin transepithelial transport (basal to apical) (Digoxin: 5 uM) in Caco-2 cells

T1 sequence (P08183 whole entry): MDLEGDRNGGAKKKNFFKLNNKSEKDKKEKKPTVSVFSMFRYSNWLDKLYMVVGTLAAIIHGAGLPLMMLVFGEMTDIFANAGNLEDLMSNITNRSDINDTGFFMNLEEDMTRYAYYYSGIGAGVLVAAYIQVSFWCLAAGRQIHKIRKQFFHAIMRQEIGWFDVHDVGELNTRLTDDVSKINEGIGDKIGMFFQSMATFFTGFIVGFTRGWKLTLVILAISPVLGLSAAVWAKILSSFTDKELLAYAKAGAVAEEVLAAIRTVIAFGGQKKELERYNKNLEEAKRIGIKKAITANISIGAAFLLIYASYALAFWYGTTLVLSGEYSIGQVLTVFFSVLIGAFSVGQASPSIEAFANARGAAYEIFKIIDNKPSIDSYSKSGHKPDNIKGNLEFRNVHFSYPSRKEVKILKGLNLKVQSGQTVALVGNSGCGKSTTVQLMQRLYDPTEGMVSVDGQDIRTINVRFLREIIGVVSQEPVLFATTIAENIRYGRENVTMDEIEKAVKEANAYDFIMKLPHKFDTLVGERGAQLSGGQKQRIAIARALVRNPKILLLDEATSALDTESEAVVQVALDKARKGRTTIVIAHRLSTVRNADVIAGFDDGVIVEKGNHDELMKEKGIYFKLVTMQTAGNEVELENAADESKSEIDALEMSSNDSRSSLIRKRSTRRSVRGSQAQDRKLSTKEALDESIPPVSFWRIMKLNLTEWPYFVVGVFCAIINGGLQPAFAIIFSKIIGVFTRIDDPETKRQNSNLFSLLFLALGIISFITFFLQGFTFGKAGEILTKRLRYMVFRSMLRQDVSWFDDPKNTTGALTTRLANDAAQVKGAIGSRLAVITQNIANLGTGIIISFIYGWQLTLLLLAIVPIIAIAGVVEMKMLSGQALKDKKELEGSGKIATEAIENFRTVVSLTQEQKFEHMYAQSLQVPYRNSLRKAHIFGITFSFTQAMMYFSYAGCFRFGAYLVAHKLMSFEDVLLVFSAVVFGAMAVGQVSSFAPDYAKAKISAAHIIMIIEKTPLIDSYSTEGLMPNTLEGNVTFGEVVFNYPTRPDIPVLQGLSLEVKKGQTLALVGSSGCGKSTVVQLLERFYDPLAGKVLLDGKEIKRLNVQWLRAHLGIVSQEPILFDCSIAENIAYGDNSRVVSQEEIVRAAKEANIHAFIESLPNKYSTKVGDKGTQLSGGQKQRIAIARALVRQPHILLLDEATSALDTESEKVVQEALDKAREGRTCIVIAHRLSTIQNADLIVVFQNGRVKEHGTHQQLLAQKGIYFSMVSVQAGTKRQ

Compound | Ki [1] | Ki [2] | IC50 [3]
CN1C[C@H](C(=O)N[C@]2(C)O[C@@]3(O)[C@@H]4CCCN4C(=O)[C@H](Cc4ccccc4)N3C2=O)C=C2c3cccc4[nH]cc(c34)C[C@H]21 [ERGOTAMINE] | 14.2 µM | 98.9 µM | –
CN1C[C@H](C(=O)N[C@]2(C)O[C@@]3(O)[C@@H]4CCCN4C(=O)[C@H](Cc4ccccc4)N3C2=O)C[C@@H]2c3cccc4[nH]cc(c34)C[C@H]21 [DIHYDROERGOTAMINE] | 120 µM | > 1000 µM | –
COC(=O)[C@H]1[C@H]2C[C@@H]3c4[nH]c5cc(OC)ccc5c4CCN3C[C@H]2C[C@@H](OC(=O)c2cc(OC)c(OC)c(OC)c2)[C@@H]1OC [RESERPINE] | 0.97 µM | 12.2 µM | –
CC(C)[C@H]1C(=O)N2CCC[C@H]2[C@]2(O)O[C@](NC(=O)[C@@H]3C=C4c5cccc6[nH]cc(c56)C[C@H]4N(C)C3)(C(C)C)C(=O)N12 [ERGOCORNINE] | 24.5 µM | 105 µM | –
CC(C)[C@@]1(NC(=O)[C@@H]2C[C@@H]3c4cccc5[nH]cc(c45)C[C@H]3N(C)C2)O[C@@]2(O)[C@@H]3CCCN3C(=O)[C@H](Cc3ccccc3)N2C1=O [DIHYDROERGOCRISTINE] | 16 µM | 511 µM | –
CC(C)[C@@]1(NC(=O)[C@@H]2C=C3c4cccc5[nH]cc(c45)C[C@H]3N(C)C2)O[C@@]2(O)[C@@H]3CCCN3C(=O)[C@H](Cc3ccccc3)N2C1=O [ERGOCRISTINE] | 13.3 µM | 42.8 µM | –
CC(C)C[C@H]1C(=O)N2CCC[C@H]2[C@]2(O)O[C@](NC(=O)[C@@H]3C=C4c5cccc6[nH]cc(c56)C[C@H]4N(C)C3)(C(C)C)C(=O)N12 [ERGOCRYPTINE] | 6.43 µM | 12.2 µM | –
CC(C)C[C@H]1C(=O)N2CCC[C@H]2[C@]2(O)O[C@](NC(=O)[C@@H]3C[C@@H]4c5cccc6[nH]cc(c56)C[C@H]4N(C)C3)(C(C)C)C(=O)N12 [DIHYDROERGOCRYPTINE] | 19.8 µM | 360 µM | –
C[C@@H](CO)NC(=O)[C@@H]1C=C2c3cccc4[nH]cc(c34)C[C@H]2N(C)C1 [ERGONOVINE] | > 100 µM | 115 µM | –
CC(C)C[C@H]1C(=O)N2CCC[C@H]2[C@]2(O)O[C@](NC(=O)[C@@H]3C=C4c5cccc6[nH]c(Br)c(c56)C[C@H]4N(C)C3)(C(C)C)C(=O)N12 [BROMOCRIPTINE] | 3.96 µM | 2.81 µM | –
OC(Cn1cncn1)(Cn1cncn1)c1ccc(F)cc1F [FLUCONAZOLE] | > 400 µM | > 1000 µM | –
COc1ccc(CCCN2CCC(Cc3ccccc3)CC2)cc1OC | – | – | 2.3 µM
